Test results: patent US7087631B2, “Aryltetrazole compounds, and compositions thereof” (Inotek Pharmaceuticals Corporation, priority 2002, dated 2006)

Target: xanthine oxidase (Homo sapiens, UniProt P47989)
Test: Xanthine oxidase inhibitory activity, 96 well plate, kinetic reading at 295 nm
Assay type: biochemical
[1] = compound concentration 0.1 μM, 0.1 µM
[2] = compound concentration 0.01 μM, 0.01 µM

Sequence of xanthine oxidase (P47989 whole entry, species assumed): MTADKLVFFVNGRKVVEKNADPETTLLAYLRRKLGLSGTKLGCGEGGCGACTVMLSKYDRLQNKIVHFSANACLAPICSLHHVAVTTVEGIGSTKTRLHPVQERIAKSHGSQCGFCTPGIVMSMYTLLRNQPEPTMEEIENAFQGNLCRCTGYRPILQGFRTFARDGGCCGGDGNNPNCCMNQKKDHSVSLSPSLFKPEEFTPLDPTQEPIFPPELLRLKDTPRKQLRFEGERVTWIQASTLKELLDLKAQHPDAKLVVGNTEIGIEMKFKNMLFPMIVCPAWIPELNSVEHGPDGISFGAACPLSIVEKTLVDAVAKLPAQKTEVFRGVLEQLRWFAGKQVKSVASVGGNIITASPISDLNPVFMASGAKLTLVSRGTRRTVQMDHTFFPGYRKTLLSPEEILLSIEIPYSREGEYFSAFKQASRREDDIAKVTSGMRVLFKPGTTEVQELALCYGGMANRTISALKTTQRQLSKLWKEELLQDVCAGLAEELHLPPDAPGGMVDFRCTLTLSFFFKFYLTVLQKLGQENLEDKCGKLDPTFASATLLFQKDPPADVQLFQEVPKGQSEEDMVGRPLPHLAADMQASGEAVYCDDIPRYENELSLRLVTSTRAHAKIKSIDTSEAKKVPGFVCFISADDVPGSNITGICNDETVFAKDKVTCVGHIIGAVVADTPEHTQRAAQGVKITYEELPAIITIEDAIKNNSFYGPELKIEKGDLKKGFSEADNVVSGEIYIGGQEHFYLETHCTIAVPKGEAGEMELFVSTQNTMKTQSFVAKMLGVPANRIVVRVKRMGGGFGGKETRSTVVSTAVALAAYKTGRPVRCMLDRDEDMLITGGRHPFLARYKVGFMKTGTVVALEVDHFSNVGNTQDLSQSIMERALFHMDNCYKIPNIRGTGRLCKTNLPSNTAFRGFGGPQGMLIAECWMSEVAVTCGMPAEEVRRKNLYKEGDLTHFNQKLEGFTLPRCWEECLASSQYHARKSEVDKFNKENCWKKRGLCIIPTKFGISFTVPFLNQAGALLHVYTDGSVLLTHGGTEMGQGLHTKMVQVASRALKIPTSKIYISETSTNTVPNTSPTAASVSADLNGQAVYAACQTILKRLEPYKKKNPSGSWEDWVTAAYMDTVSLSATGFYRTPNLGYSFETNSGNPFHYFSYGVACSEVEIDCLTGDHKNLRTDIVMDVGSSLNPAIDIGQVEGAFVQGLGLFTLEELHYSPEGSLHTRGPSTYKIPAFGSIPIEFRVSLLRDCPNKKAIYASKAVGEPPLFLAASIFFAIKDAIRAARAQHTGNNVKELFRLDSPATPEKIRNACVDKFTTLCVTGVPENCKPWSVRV

Row | SMILES | PERCENT XANTHINE OXIDASE INHIBITION (compound concentration 1 μM) [%] | PERCENT XANTHINE OXIDASE INHIBITION (compound concentration 100 μM) [%] | PERCENT XANTHINE OXIDASE INHIBITION (compound concentration 0.03 μM) [%] | PERCENT XANTHINE OXIDASE INHIBITION (compound concentration 0.1 μM) [%] | also measured
1 | CC(C)OC(=O)c1ccc(-c2nnn[nH]2)cc1 [FZ] | 88 | 100 | – | – | PERCENT XANTHINE OXIDASE INHIBITION (compound concentration 10 μM): 97%
2 | CC(=O)c1cccc(NC(=O)c2ccc(-c3nnn[nH]3)cc2)c1 [Compound IA] | 90 | – | 31 | 54 | –
3 | CN(C(=O)c1ccc(-c2nnn[nH]2)cc1)c1ccccc1 [IM] | 0 | – | – | – | –
4 | O=[N+]([O-])c1cc(-c2nnn[nH]2)ccc1Cl [HF] | – | 80 | – | – | –
5 | CC(C)COc1ccc(-c2nn[nH]n2)cc1 [Compound IR] | 88 | – | 28 | 47 | –
6 | O=C(Nc1ccc(F)cc1)c1ccc(-c2nnn[nH]2)cc1 [Compound HX] | 92 | – | 37 | 59 | –
7 | CCc1cccc(NC(=O)c2ccc(-c3nnn[nH]3)cc2)c1 [IE] | 87 | – | 22 | 38 | –
8 | Fc1ccc(-c2nnn[nH]2)cc1Cl [Compound HE] | – | 33 | – | – | –
9 | Clc1ccc(-c2nnn[nH]2)cc1 [FH] | – | 69 | – | – | PERCENT XANTHINE OXIDASE INHIBITION (compound concentration 10 μM): 27%
10 | O=C(Nc1cccc(I)c1)c1ccc(-c2nnn[nH]2)cc1 [HZ] | 88 | – | 20 | 41 | –
11 | O=C(OCC(C(F)(F)F)C(F)(F)F)c1ccc(-c2nnn[nH]2)cc1 [GS] | 95 | – | – | 68 | PERCENT XANTHINE OXIDASE INHIBITION (compound concentration 0.01 μM): 13%
12 | O=C(OCC(F)(F)C(F)F)c1ccc(-c2nnn[nH]2)cc1 [GP] | 92 | – | – | 65 | PERCENT XANTHINE OXIDASE INHIBITION (compound concentration 0.01 μM): 9%
13 | O=C(OCC12CC3CC(CC(C3)C1)C2)c1ccc(-c2nnn[nH]2)cc1 [GI] | 100 | – | 75 | 95 | –
14 | Cc1ccc(-c2nnn[nH]2)cc1 [FN] | – | 32 | – | – | PERCENT XANTHINE OXIDASE INHIBITION (compound concentration 10 μM): 3%
15 | O=C(OC1CCCCC1)c1ccc(-c2nnn[nH]2)cc1 [GO] | 82 | – | – | 18 | PERCENT XANTHINE OXIDASE INHIBITION (compound concentration 0.01 μM): 6%
16 | O=C(O)Cc1cccc(NC(=O)c2ccc(-c3nnn[nH]3)cc2)c1 [ID] | 72 | – | 13 | 37 | –
17 | CCOc1ccc(-c2nnn[nH]2)cc1 [HD] | – | 60 | – | – | –
18 | COC(=O)c1ccc(-c2nnn[nH]2)cc1 [FW] | 39 | 100 | – | – | PERCENT XANTHINE OXIDASE INHIBITION (compound concentration 10 μM): 82%
19 | O=C(OC1CCCCC1)c1ccc(-c2nnn[nH]2)cc1 [GH] | – | – | 65 | – | PERCENT XANTHINE OXIDASE INHIBITION [1]: 91%; PERCENT XANTHINE OXIDASE INHIBITION (compound concentration 1 μM, 1 µM): 100%
20 | O=C(Nc1ccc(-c2nnn[nH]2)cc1)c1ccccc1 [Compound IT] | 56 | – | 7 | 15 | –
21 | COc1ccc(-c2nnn[nH]2)cc1 [FK] | – | 71 | – | – | PERCENT XANTHINE OXIDASE INHIBITION (compound concentration 10 μM): 30%
22 | O=C(OCC(F)(F)F)c1ccc(-c2nnn[nH]2)cc1 [GJ] | 99 | – | – | 59 | PERCENT XANTHINE OXIDASE INHIBITION (compound concentration 0.01 μM): 12%
23 | N#Cc1cc(-c2nnn[nH]2)ccc1C(=O)Nc1ccccc1 [JF] | 34 | – | – | 6 | –
24 | O=C(OCc1ccccc1I)c1ccc(-c2nnn[nH]2)cc1 [JQ] | 100 | – | – | – | PERCENT XANTHINE OXIDASE INHIBITION [2]: 18%; PERCENT XANTHINE OXIDASE INHIBITION [1]: 89%
25 | CC(C)COc1ccc(-c2nnn[nH]2)cc1C#N [Compound JE] | 82 | – | 12 | 32 | –
26 | Nc1ccc(-c2nnn[nH]2)cc1 [FO] | – | 30 | – | – | PERCENT XANTHINE OXIDASE INHIBITION (compound concentration 10 μM): 3%
27 | CCCOC(=O)c1ccc(-c2nnn[nH]2)cc1 [HR] | 95 | – | – | 95 | PERCENT XANTHINE OXIDASE INHIBITION (compound concentration 0.05 μM): 34%

Row | SMILES | PERCENT XANTHINE OXIDASE INHIBITION (compound concentration 1 μM) [%] | PERCENT XANTHINE OXIDASE INHIBITION (compound concentration 100 μM) [%] | PERCENT XANTHINE OXIDASE INHIBITION (compound concentration 0.03 μM) [%] | PERCENT XANTHINE OXIDASE INHIBITION (compound concentration 0.1 μM) [%] | also measured
28 | O=C(Oc1ccccc1)c1ccc(-c2nnn[nH]2)cc1 [GC] | 100 | – | – | 97 | PERCENT XANTHINE OXIDASE INHIBITION (compound concentration 0.05 μM): 52%
29 | O=C(NCc1cccnc1)c1ccc(-c2nnn[nH]2)cc1 [HC] | 25 | – | – | – | –
30 | O=C(Nc1ccccc1)Nc1ccc(-c2nnn[nH]2)cc1 [IU] | 42 | – | 3 | 9 | –
31 | O=C(OCc1ccco1)c1ccc(-c2nnn[nH]2)cc1 [HP] | 100 | – | – | 91 | PERCENT XANTHINE OXIDASE INHIBITION (compound concentration 0.05 μM): 41%
32 | COc1cccc(NC(=O)c2ccc(-c3nnn[nH]3)cc2)c1 [IL] | 86 | – | 21 | 46 | –
33 | Clc1cccc(-c2nnn[nH]2)c1 [FG] | – | 34 | – | – | –
34 | CC(C)COc1ccc(-c2nnn[nH]2)cc1 [JP] | 98 | – | 46 | 74 | –
35 | CC(C)(C)OC(=O)N1CCN(C(=O)c2ccc(-c3nnn[nH]3)cc2)CC1 [HK] | – | 43 | – | – | –
36 | C=C(C)C1CC=C(COC(=O)c2ccc(-c3nnn[nH]3)cc2)CC1 (centres unmarked) [GR] | 48 | – | – | 8 | PERCENT XANTHINE OXIDASE INHIBITION (compound concentration 0.01 μM): 0%
37 | CCCCOC(=O)c1ccc(-c2nnn[nH]2)cc1 [FX] | 73 | 95 | – | – | PERCENT XANTHINE OXIDASE INHIBITION (compound concentration 10 μM): 95%
38 | O=C(OC(C1CCCCC1)C1CCCCC1)c1ccc(-c2nnn[nH]2)cc1 [GZ] | 8 | – | – | – | –
39 | FC(F)(F)Oc1ccc(-c2nnn[nH]2)cc1 [FL] | – | 55 | – | – | PERCENT XANTHINE OXIDASE INHIBITION (compound concentration 10 μM): 14%
40 | O=C(O)Cc1ccc(NC(=O)c2ccc(-c3nnn[nH]3)cc2)cc1 [II] | 90 | – | 20 | 45 | –
41 | CC(C)COc1ccc(-c2nnn[nH]2)cc1Br [Compound JC] | 31 | – | – | 6 | –
42 | O=C(OC1CCC2CCCCC2C1)c1ccc(-c2nnn[nH]2)cc1 (centres unmarked) [GY] | 76 | – | – | 11 | PERCENT XANTHINE OXIDASE INHIBITION (compound concentration 0.01 μM): 19%
43 | COc1cc(-c2nnn[nH]2)cc(OC)c1OC [HG] | – | 22 | – | – | –
44 | Fc1ccccc1-c1nnn[nH]1 [FP] | – | 21 | – | – | PERCENT XANTHINE OXIDASE INHIBITION (compound concentration 10 μM): 3%
45 | O=C(Nc1ccccc1F)c1ccc(-c2nnn[nH]2)cc1 [HY] | 86 | – | 20 | 45 | –
46 | Brc1ccc(-c2nnn[nH]2)cc1 [FI] | – | 67 | – | – | PERCENT XANTHINE OXIDASE INHIBITION (compound concentration 10 μM): 21%
47 | COc1cc(-c2nnn[nH]2)ccc1OCC(C)C [JD] | 28 | – | – | 0 | –
48 | c1ccc(-c2nnn[nH]2)cc1 [FF] | – | 10 | – | – | –
49 | CCOC(=O)c1ccc(-c2nnn[nH]2)cc1 [FV] | 64 | 100 | – | – | PERCENT XANTHINE OXIDASE INHIBITION (compound concentration 10 μM): 92%
50 | O=C(NCC1CCCCC1)c1ccc(-c2nnn[nH]2)cc1 [HS] | 55 | – | 8 | 16 | –
51 | CC(C)c1ccccc1NC(=O)c1ccc(-c2nnn[nH]2)cc1 [IF] | 16 | – | – | – | –
52 | O=C(c1ccc(-c2nnn[nH]2)cc1)N1CCNCC1 [HL] | – | 0 | – | – | –
53 | O=C(Nc1ccc(F)cc1F)c1ccc(-c2nnn[nH]2)cc1 [IZ] | 89 | – | 23 | 52 | –
54 | O=C(OCc1ccccc1I)c1ccc(-c2nnn[nH]2)cc1 [GX] | 100 | – | – | – | PERCENT XANTHINE OXIDASE INHIBITION [2]: 19%; PERCENT XANTHINE OXIDASE INHIBITION [1]: 84%
